For data set [1], the system named is B16 subline of high pulmonary metastatic potential. The experiment in a line: Inhibition of pulmonary metastasis of B16 subline pretreated with compound and injected i.v. into BDF1 mice. The note with it: for Inhibition of metastasis to the lungs (in words): B16 subline, BDF1 mice. In kind it is in vivo, murine; mouse BDF1. As to the method: Based on the method described priviously (Method in Cancer Research, 15, 399-439, 1978), a subline of high metastatic potential (high pulmonary colonization) was selected from murine melanoma B16 by repeating the i.v. transplantation of the tumor cells in BDF1 mice and the isolation of pulmonary metastatic clones.
Evaluation of the metastasis inhibiting activity was performed based on the method described previously (Proc. Natl Acad. Sci. USA, 83, 1752-1756, 1986, Cancer Research, 46, 858-862, 1986).
Firstly, the B16 subline of high metastatic potential was inoculated into Dulbecco's ME medium (DME medium) supplemented with 10% bovine fetal serum and the compound represented by general formula (I) described above was added thereto.
The B16 subline of high pulmonary metastatic potential was inoculated into DME medium supplemented with 10% bovine fetal serum and 30, 100 or 300 μg/ml of N (3-phenylpropyl)-1-deoxynojirimycin was added thereto followed by incubation at 37° C. for 3 days in the presence of 5% CO2.
Inhibition of metastasis was examined in a manner similar to Test Example 2 except that N-(3-phenyl-2-propenyl)-1-deoxy-nojirimycin and N-(3-p-chlorophenyl-3-methyl-2-propenyl)-1-deoxynojirimycin were used instead of N-(3-phenylpropyl)-1-deoxynojirimycin in Test Example 2. In this test example, however, 2.5×10^5 cells each of the B16 subline were transplanted to 3 mice for each group.
The B16 subline of high pulmonary metastatic potential was inoculated into DME medium supplemented with 10% bovine fetal serum and 30 μg/ml of N-(4-phenoxy-trans-2-butenyl)-1-deoxynojirimycin was added thereto followed by incubation at 37° C. for 3 days in the presence of 5% CO2. […] The number of colonies of the B16 subline formed on the surface of and in the lung was counted.
Inhibition of metastasis was examined in a manner similar to Test Example 5 except that N-(2-phenoxyethyl)-1-deoxynojirimycin was used instead of N-(4-phenoxy-trans-2-butenyl)-1-deoxynojirimycin in Test Example 5.
The B16 sibline of high pulmonary metastatic potential was inoculated into DME medium supplemented with 10% bovine fetal serum and 10 μg/ml of D-glucaro-δ-lactam calcium salt was added thereto followed by incubation at 37° C. for 3 days in the presence of 5% CO2. […] The number of the colonies formed on the surface of and in the lung was counted.
Inhibition of metastasis was examined in a manner similar to Test Example 8 except that D-glucaro-δ-lactam methyl ester and D-glucaro-δ-lactam ethyl ester were used instead of D-glucaro-δ-lactam calcium salt in Test Example 8.
The B16 subline of high pulmonary metastatic potential was inoculated into DME medium supplemented with 10% bovine fetal serum and 10 μg/ml of 2,6-di-O-(acetylsalicyloyl)-D-gluco-δ-lactam was added thereto followed by incubation at 37° C. for 3 days in the presence of 5% CO2.
The B16 subline of high pulmonary metastatic potential was inoculated into DME medium supplemented with 10% bovine fetal serum and 30 μg/ml of 6-O-triphenylmethyl-D-gluco-δ-lactam was added thereto followed by incubation at 37° C. for 3 days in the presence of 5% CO2.
The B16 subline of high pulmonary metastatic potential was inoculated into DME medium supplemented with 10% bovine fetal serum and 30 μg/ml of 1-deoxynojirimycin was added thereto followed by incubation at 37° C. for 3 days in the presence of 5% CO2.

Data set [2] shares this test system. The note with it: 3 days. The protocol: (§1) The B16 subline of high pulmonary metastatic potential and murine tumor cell line L 929 were cultured in DME medium supplemented with 10% bovine fetal serum at 37° C. in the presence of 5% CO2. Then, cells were detached from the Petri dish with trypsin-EDTA solution. The B16 subline and L 929 were suspended in the medium described above in 1×10^4 cells/ml and 1×10^3 cells/ml, respectively. Each suspension, 150 μl, was added to 50 μl of N-(3-phenylpropyl)-1-deoxynojirimycin solution or Adriamycin (control) solution. Incubation was performed for 3 days for the B16 subline and for 4 days for L 929 strain.
as §1, with “of N-(4-phenoxy-trans-2-butenyl)-1-deoxynojirimycin” for “of N-(3-phenylpropyl)-1-deoxynojirimycin”, “days in” for “days for”, “L 929.” for “L 929 strain.”
The B16 subline of high pulmonary metastatic potential and murine tumor cell line L 929 were cultured in DME medium supplemented with 10% bovine fetal serum at 37° C. in the presence of 5% CO2. Then, cells were detached from the Petri dish with trypsin-EDTA solution. The B16 subline and L 929 were suspended in the medium described above in 1×10^4 cells/ml and 1×10^3 cells/ml, respectively. Each suspension, 150 μl, was added to 50 μl of D-glucaro-δ-lactam calcium salt solution or Adriamycin (control) solutions. Incubation was performed for 3 days in the B16 subline and for 4 days in L 929.
The B16 subline of high pulmonary metastatic potential and murine tumor cell line L 929 were cultured in DME medium supplemented with 10% bovine fetal serum at 37° C. in the presence of 5% CO2. Then, cells were detached from the Petri dish with trypsin-EDTA solution. The B16 subline and L 929 were suspended in the medium described above in 1×10^4 cells/ml and 1×10^3 cells/ml, respectively. Each suspension, 150 μl, was added to 50 μl of 2,6-di-O-(1-(p-chlorobenzoyl)-5-methoxy-2-methylindole-3-acetyl)-D-gluco-δ-lactam solution or and Adriamycin (control) solutions. Incubation was performed for 3 days in the B16 subline and for 4 days in L 929.
The B16 subline of high pulmanary metastatic potential and murine tumor cell line L 929 were cultured in DME medium supplemented with 10% bovine fetal serum at 37° C. in the presence of 5% CO2. Then, cells were detached from the Petri dish with trypsin-EDTA solution. The B16 subline and L 929 were suspended in the medium described above in 1×10^4 cells/ml and 1×10^3 cells/ml, respectively. Each suspension, 150 μl, was added to 50 μl of 6-O-triphenylmethyl-D-gluco-δ-lactam solution or Adriamycin (control) solutions. Incubation was performed for 3 days in the B16 sibline and for 4 days in L 929.
The B16 subline of high pulmonary metastatic potential was inoculated into DME medium supplemented with 10% bovine fetal serum and 30 μg/ml of 1-deoxynojirimycin was added thereto followed by incubation at 37° C. for 3 days in the presence of 5% CO2. […] Next, the cells were detached from the Petri dish with trypsin-EDTA solution. The cells were suspended in PBS- in 1×10^6 cells/ml as viable cells. This suspension, 0.1 ml, was intravenously injected in the tail vein of the mouse BDF1 (8 week age, male; 1 group, 3 mice). After feeding for 14 days, the mouse was sacrificed to excise the lungs. The number of colonies of the B16 subline on the surface of and in the lungs was counted.

Data set [3] relates to murine tumor cell line L 929. The experiment in a line: Cytotoxic activity against L 929 (growth observed with inverted microscope, 4 days).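 As to growth: + means growth and ± means marked inhibition and - means cell death.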 Particulars: for Growth: 4 days. In kind it is cell-based. The protocol:
The B16 subline of high pulmonary metastatic potential and murine tumor cell line L 929 were cultured in DME medium supplemented with 10% bovine fetal serum at 37° C. in the presence of 5% CO2.
The B16 subline of high pulmanary metastatic potential and murine tumor cell line L 929 were cultured in DME medium supplemented with 10% bovine fetal serum at 37° C. in the presence of 5% CO2.

Data set [4] can be described thus: Acute toxicity (LD50) by mice. Particulars: mouse, in vivo.
Where [5] appears, read: Table 10, 30 μg/ml, None 82 ± 11.2.

Where a name gives a salt, the structure may show the parent alone. Read-outs that look alike come from different tables or passages of the source.

Consider `OC[C@H]1NC[C@H](O)[C@@H](O)[C@@H]1O` [1-Deoxynojirimycin, 1-deoxynojirimycin], for which, in data set [1], the “Inhibition of metastasis to the lungs (in words)” value (from here on “Inhibition of metastasis”) was “the number of colonies on the surface of and in the lungs was markedly inhibited”. Besides, the “Pulmonary Metastasis (Mean ± Standard Deviation)” value in data set [1] (Table 15, 30 μg/ml, 3 mice, None 119 ± 37) is 31 ± 11 no.
With `O=C(O)[C@H]1NC(=O)[C@H](O)[C@@H](O)[C@@H]1O` [D-Glucaro-δ-lactam calcium salt, D-glucaro-δ-lactam calcium salt], the Growth result in data set [2] (Table 8, B16 subline, 10 μg/ml) is recorded as “+”; in data set [2] (Table 8, B16 subline, 30 μg/ml) it was “+”; in data set [3] (Table 8, L 929, 10 μg/ml), “+”; in data set [3] (Table 8, L 929, 30 μg/ml) it was “+”. For the same compound, the “Cytotoxicity (in words)” value in data set [3] (L 929, even at a concentration as high as 30 μg/ml) is reported as “did not show marked cytotoxicity”. Besides, the “Inhibition of metastasis” value in data set [1] was “markedly inhibited”. The “Pulmonary Metastasis, Mouse 1” value in data set [1] (Table 9, 10 μg/ml, 14 days) is recorded as 7 no. In addition, the “Pulmonary Metastasis, Mouse 2” value in data set [1] (Table 9, 10 μg/ml, 14 days) amounted to 4 no. For the same compound, in data set [1] (Table 9, 10 μg/ml, 14 days), the “Pulmonary Metastasis, Mouse 3” value is 0 no. Besides, in data set [1] (Table 9, 10 μg/ml, 14 days, None 69 ± 1.0), the “Pulmonary Metastasis (Mean ± Standard Deviation)” value was found to be 3.7 ± 3.5 no. Also, the “Pulmonary Metastasis, %” value in data set [1] (Table 9, 10 μg/ml, None = 100) is given as 5.4%.
Broadly, the LD50 is the dose at which mortality reaches 50%. In the case of `COC(=O)[C@H]1NC(=O)[C@H](O)[C@@H](O)[C@@H]1O` [D-Glucaro-δ-lactam methyl ester, D-glucaro-δ-lactam methyl ester], the values for the LD50 in data set [4] (iv) and in data set [4] (po) were more than 5000 mg/kg and more than 10000 mg/kg, respectively. Moreover, the “Inhibition of metastasis” value in data set [1] is listed as “markedly inhibited”. In addition, in data set [1] (setting [5]), the “Pulmonary Metastasis (Mean ± Standard Deviation)” value is given as 21 ± 8.5 no.
Take `O=C(O)[C@H]1NC(=O)[C@H](O)[C@@H](O)[C@@H]1O` [D-Glucaro-δ-lactam sodium salt]: the LD50 is more than 3000 mg/kg in data set [4] (iv) and more than 5000 mg/kg in data set [4] (po).
On to `COc1cccc2c1C(=O)c1c(O)c3c(c(O)c1C2=O)C[C@@](O)(C(=O)CO)C[C@@H]3O[C@H]1C[C@H](N)[C@H](O)[C@H](C)O1` [Adriamycin, reference compound], for which the Growth entry in data set [2] (Table 2, B16 subline, 0.1 μg/ml, control) was “-”; in data set [2] (Table 5, B16 subline, 0.1 μg/ml, control) it was “-”; in data set [2] (Table 8, B16 subline, 0.1 μg/ml, control), “-”; in data set [2] (Table 11, B16 subline, 0.1 μg/ml, control) it was “-”; in data set [2] (Table 13, B16 subline, 0.1 μg/ml, control), “-”; in data set [3] (Table 2, L 929, 1 μg/ml, control) it was “-”. Also, the Growth entry in data set [3] (Table 5, L 929, 1 μg/ml, control) is “-”; in data set [3] (Table 8, L 929, 1 μg/ml, control), “-”; in data set [3] (Table 11, L 929, 1 μg/ml, control), “-”; in data set [3] (Table 13, L 929, 1 μg/ml, control) it was “-”.
`CCOC(=O)[C@H]1NC(=O)[C@H](O)[C@@H](O)[C@@H]1O` [D-Glucaro-δ-lactam ethyl ester, D-glucaro-δ-lactam ethyl ester]: the “Inhibition of metastasis” value in data set [1] is “markedly inhibited”. Besides, the “Pulmonary Metastasis (Mean ± Standard Deviation)” value in data set [1] (setting [5]) worked out at 13 ± 5.4 no.
With `COc1ccc2c(c1)c(CC(=O)OC[C@H]1NC(=O)[C@H](OC(=O)Cc3c(C)n(C(=O)c4ccc(Cl)cc4)c4ccc(OC)cc34)[C@@H](O)[C@@H]1O)c(C)n2C(=O)c1ccc(Cl)cc1` [2,6-di-O-[1-(p-chlorobenzoyl)-5-methoxy-2-methylindole-3-acetyl]-D-gluco-δ-lactam], the Growth entry in data set [2] (Table 11, B16 subline, 10 μg/ml) is listed as “+”; in data set [3] (Table 11, L 929, 3 μg/ml), “+”; in data set [3] (Table 11, L 929, 10 μg/ml) it was “+”; in data set [3] (Table 11, L 929, 30 μg/ml), “+”. The “Cytotoxicity (in words)” value in data set [3] (L 929, even at a concentration as high as 10 μg/ml) is given as “did not show marked cytotoxity”.
`OC[C@@H]1[C@@H](O)[C@H](O)[C@@H](O)CN1CCOc1ccccc1` [N-(2-Phenoxyethyl)-1-deoxynojirimycin, N-(2-phenoxyethyl)-1-deoxynojirimycin]: the “Inhibition of metastasis” value in data set [1] is reported as “markedly inhibited”. Further, in data set [1] (Table 7, 100 μg/ml, None 86 ± 22.1), the “Pulmonary Metastasis (Mean ± Standard Deviation)” value worked out at 7 ± 2.1 no.
`CC(=CCN1C[C@H](O)[C@@H](O)[C@H](O)[C@H]1CO)c1ccc(Cl)cc1` [N-(3-p-chlorophenyl-3-methyl-2-propenyl)-1-deoxynojirimycin]: the “Inhibition of metastasis” value in data set [1] is listed as “markedly inhibited”.

The values above are taken from patent US4985445A, “Cancer cell metastasis inhibitors and novel compounds” (Meiji Seika Kaisha, Ltd., priority 1988, dated 1991).
